The text below walks through data of patent publication US10537535B2, “Histone deacetylase inhibitors” (The Regents of the University of California, priority 2015, dated 2020).

Molecules are shown by their SMILES.

The test system of test [1] is gene expression in the antenna of Drosophila melanogaster. Nature of the test: RNA-seq transcriptome analysis of Drosophila antennae after exposure or feeding. It counts as in vivo. The note with it: 5 days; diacetyl 1% headspace, SB/VA 10 mM in food; vs control. An excerpt: In order to examine the physiological effects of long-term exposure to an odorant, flies were maintained in vials with circulating volatiles from headspace of a low concentration (1% in paraffin oil) of the odorant diacetyl, which acts on a number of different receptor pathways in Drosophila. In a similar manner to previous odor-exposure studies, flies were exposed to diacetyl for 5 days and performed an RNA-seq analysis of the antennae, which are known odor-detecting organs. The transcriptome was compared with a control group of age-matched flies that were exposed to the headspace of the solvent paraffin oil (PO, FIG. 3A).
Flies were exposed to diacetyl (2,3-Butanedione, B85307, Sigma-Aldrich, St. Louis, Mo.) by placing them in vials in a cylindrical closed container (112 mm diameter×151 mm height) along with an odor-containing glass vial. The odorant was dissolved in 10 mL paraffin oil at 1% dilution. For a given exposure protocol, two groups of flies were prepared: those exposed to 1% diacetyl headspace and those exposed to paraffin oil headspace alone (control flies). Adult male flies aged 1 d were transferred to fly vials containing fresh medium, and put into the container with the odor vial. At the end of the fifth day of exposure, flies were collected, and their antennae were dissected for RNA extraction. All treatments and experiments were performed at room temperature. For the recovery experiment, flies were transferred again to the container containing a glass vial of paraffin oil after 5 days of diacetyl exposure. At the end of the fifth day of recovery, flies were collected, and their antennae were dissected for RNA extraction.
Sodium butyrate (B5887, Sigma-Aldrich) or valproic acid (P4543, Sigma-Aldrich) were dissolved in normal fly food medium at the final concentration of 10 mM. Three groups of flies were prepared: those treated with one of the HDAC inhibitors and those without HDAC inhibitor treatment (control flies). Adult flies aged 1 d were transferred to fly vials containing medium with or without a HDAC inhibitor. At the end of the fifth day of treatment, flies were collected, and their antennae were dissected for RNA extraction. All treatments and experiments were performed at room temperature.
The second and third antennal segments from 40-60 male flies after treatment were carefully hand-dissected from the head, collected in 1.5 ml microfuge tubes kept cold in liquid nitrogen. Antennae were mechanically crushed with disposable RNAse-free plastic pestles, and total RNA was isolated using a Trizol-based protocol. cDNA libraries were prepared from total RNA (300-1000 ng/sample) using the Illumina TruSeq RNA Library Preparation Kit (Illumina Catalog #RS-122-2001). Samples were submitted to the UCR IIGB sequencing core for high-throughput sequencing using the Illumina HiSeq2500 platform. Raw reads were aligned to the Drosophila melanogaster reference genome (dmel-all-chromosome-r5.48.fasta) with Tophat2, and a count table of reads overlapping with exonic regions of genes was generated by the UCR bioinformatics core. The numbers of biological replicates are: 2, day 5 paraffin oil; 1, day 5 diacetyl; 2, day 5 mock; 2, day 5 sodium butyrate; 2, day 5 valproic acid; 2, day 10 paraffin oil recovery; 2, day 10 diacetyl recovery.
The read count table for all the genes were then imported into R and a statistical analysis of differential gene expression using the DESeq package (1.22.0) was performed. […] The gene list analysis was performed using the GO Term Mapper (http://go.princeton.edu/) with Generic GO slim datasets, and the Statistical overrepresentation test was performed using the PANTHER classification (http://www.pantherdb.org/) system with GO complete datasets.
This example investigates the overlap among genes modulated by diacetyl as compared to sodium butyrate and valproic acid, which are known HDAC inhibitors. […]

For the next test, the system named is Gr63a. Nature of the test: Whole mount RNA in situ of adult Drosophila antenna Gr63a. It counts as in vivo. The note with it: 5 days; odor 1 1% on filter paper, sodium butyrate 10 mM fed; vs untreated or mock. Here is the method: For five days, Drosophila were exposed to 1% diacetyl (odor 1) on filter paper; fed known HDAC inhibitor sodium butyrate (Na-but; 10 mM); or fed known HDAC inhibitor valproic acid (10 mM).

For another test, the system named is pGMR-HTTQ120 flies. The conditions noted are these: orally-administered, previous studies; cited from earlier work.

For the molecule `CCCC(CCC)C(=O)O` [valproic acid, reference compound], in test [1], the “number of differentially-expressed genes in antennal transcriptome” value is given as 940 genes, the “number of genes down-regulated >2-fold” value is reported as 772 genes and the “number of genes up-regulated >2-fold” value is recorded as 168 genes.
Regarding `CCCC(=O)[O-].[Na+]` [sodium butyrate, Sodium butyrate, reference compound], in test [1], the “number of differentially-expressed genes in antennal transcriptome” value worked out at 558 genes, the “number of genes down-regulated >2-fold” value is reported as 366 genes and the “number of genes up-regulated >2-fold” value is reported as 192 genes. In the test on Gr63a, the “Gr63a expression in antenna (RNA in situ)” value is “over-expression”. For the same molecule, in the test on pGMR-HTTQ120 flies, the “photoreceptor degeneration in Huntington's model Drosophila” value was “significantly reduce photoreceptor degeneration”.
`O=C(CCCCCCC(=O)Nc1ccccc1)NO` [SAHA, suberoylanilide hydroxamic acid]: in the test with pGMR-HTTQ120 flies, the “photoreceptor degeneration in Huntington's model Drosophila” value is on record as “significantly reduce photoreceptor degeneration”.
